In this experiment the test system is MV-4-11 cells. Put plainly: Gene expression microarray analysis (Affymetrix PrimeView) and GSEA. The class given is cell-based, human. On the set-up: RFU PODN (11730768_x_at) / Fold change /veh PODN (11730768_x_at) / RFU LINC00158 (11744669_a_at) / Fold change /veh LINC00158 (11744669_a_at) / RFU DUSP10 (11751237_a_at) / Fold change /veh DUSP10 (11751237_a_at) / RFU ID3 (11757404_x_at) / Fold change /veh ID3 (11757404_x_at) / RFU PLEKHG5 (11737974_s_at) / Fold change /veh PLEKHG5 (11737974_s_at) / RFU LRRC4B (11730491_at) / Fold change /veh LRRC4B (11730491_at) / RFU GIMAP4 (11747438_a_at) / Fold change /veh GIMAP4 (11747438_a_at) / RFU KRT8 (11758183_x_at) / Fold change /veh KRT8 (11758183_x_at) / RFU CNN1 (11734310_a_at) / Fold change /veh CNN1 (11734310_a_at) / RFU VPS37D (11726825_at) / Fold change /veh VPS37D (11726825_at) / RFU C10orf10 (11716522_x_at) / Fold change /veh C10orf10 (11716522_x_at) / RFU KIR2DL2 /// KIR2DL4 /// KIR2DL5A /// KIR2DL5B /// KIR2DS1 /// KIR2DS2 /// KIR2DS3 /// KIR2DS4 /// KIR3DL3 /// KIR3DL3 /// KIR3DS1 (11738374_at) / Fold change /veh KIR2DL2 /// KIR2DL4 /// KIR2DL5A /// KIR2DL5B /// KIR2DS1 /// KIR2DS2 /// KIR2DS3 /// KIR2DS4 /// KIR3DL3 /// KIR3DL3 /// KIR3DS1 (11738374_at) / RFU C1QL1 (11718748_at) / Fold change /veh C1QL1 (11718748_at) / RFU TMPRSS4 (11747572_a_at) / Fold change /veh TMPRSS4 (11747572_a_at) / RFU HAMP (11756126_x_at) / Fold change /veh HAMP (11756126_x_at) / RFU RNFT2 (11725882_a_at) / Fold change /veh RNFT2 (11725882_a_at) / RFU NR4A2 (11747474_a_at) / Fold change /veh NR4A2 (11747474_a_at) / RFU ABCC12 (11746883_a_at) / Fold change /veh ABCC12 (11746883_a_at) / RFU TMEM136 (11760407_x_at) / Fold change /veh TMEM136 (11760407_x_at) / RFU CLDN22 /// WWC2 (11732394_at) / Fold change /veh CLDN22 /// WWC2 (11732394_at) / RFU HLA-DPB1 (11760878_x_at) / Fold change /veh HLA-DPB1 (11760878_x_at) / RFU SPINT1 (11716480_a_at) / Fold change /veh SPINT1 (11716480_a_at) / RFU GAP43 (11754022_s_at) / Fold change /veh GAP43 (11754022_s_at) / RFU A4GNT (11735810_at) / Fold change /veh A4GNT (11735810_at) / RFU PRB3 (11715151_x_at) / Fold change /veh PRB3 (11715151_x_at) / RFU TUBB4B (11761932_at) / Fold change /veh TUBB4B (11761932_at) / RFU CAPN14 (11732068_a_at) / Fold change /veh CAPN14 (11732068_a_at) / RFU TMCC2 (11721928_a_at) / Fold change /veh TMCC2 (11721928_a_at) / RFU IRGQ (11745062_a_at) / Fold change /veh IRGQ (11745062_a_at) / RFU FAM174B (11720279_a_at) / Fold change /veh FAM174B (11720279_a_at) / RFU TMPRSS4 (11748680_a_at) / Fold change /veh TMPRSS4 (11748680_a_at) / RFU FAM212B (11763350_a_at) / Fold change /veh FAM212B (11763350_a_at) / RFU PLEKHG5 (11743358_a_at) / Fold change /veh PLEKHG5 (11743358_a_at) / RFU ZSCAN30 (11745921_a_at) / Fold change /veh ZSCAN30 (11745921_a_at) / RFU CMKLR1 (11741424_a_at) / Fold change /veh CMKLR1 (11741424_a_at) / RFU LOC101060620 /// MAPK8IP1 (11723275_at) / Fold change /veh LOC101060620 /// MAPK8IP1 (11723275_at) / RFU SPTSSB (11747773_x_at) / Fold change /veh SPTSSB (11747773_x_at) / RFU PRSS12 (11739890_at) / Fold change /veh PRSS12 (11739890_at) / RFU BIN1 (11741810_x_at) / Fold change /veh BIN1 (11741810_x_at) / RFU WNT11 (11732464_a_at) / Fold change /veh WNT11 (11732464_a_at) / RFU C10orf10 (11716521_a_at) / Fold change /veh C10orf10 (11716521_a_at) / RFU C5orf56 (11738089_at) / Fold change /veh C5orf56 (11738089_at) / RFU CYB561 (11721691_x_at) / Fold change /veh CYB561 (11721691_x_at) / RFU ANKRD19P (11752326_a_at) / Fold change /veh ANKRD19P (11752326_a_at) / RFU OR2T12 /// OR2T33 /// OR2T8 (11738714_s_at) / Fold change /veh OR2T12 /// OR2T33 /// OR2T8 (11738714_s_at) / RFU VCAN (11748164_a_at) / Fold change /veh VCAN (11748164_a_at) / RFU JSRP1 (11732532_at) / Fold change /veh JSRP1 (11732532_at) / RFU KRTAP10-11 (11738290_x_at) / Fold change /veh KRTAP10-11 (11738290_x_at) / RFU MYO3A (11730013_a_at) / Fold change /veh MYO3A (11730013_a_at) / RFU EBF3 (11725865_a_at) / Fold change /veh EBF3 (11725865_a_at) / RFU CAMK2N1 (11719241_x_at) / Fold change /veh CAMK2N1 (11719241_x_at) / RFU C5orf56 (11738088_a_at) / Fold change /veh C5orf56 (11738088_a_at) / RFU OLFML3 (11715873_a_at) / Fold change /veh OLFML3 (11715873_a_at) / RFU LOC100653217 /// NTM (11731650_a_at) / Fold change /veh LOC100653217 /// NTM (11731650_a_at) / RFU MAPK11 (11762145_a_at) / Fold change /veh MAPK11 (11762145_a_at) / RFU FIZ1 (11724087_x_at) / Fold change /veh FIZ1 (11724087_x_at) / RFU OASL (11726364_x_at) / Fold change /veh OASL (11726364_x_at) / RFU SOX15 (11748057_x_at) / Fold change /veh SOX15 (11748057_x_at) / RFU CD79A (11719716_a_at) / Fold change /veh CD79A (11719716_a_at) / RFU HIST1H1D (11736915_at) / Fold change /veh HIST1H1D (11736915_at) / RFU CASKIN2 (11723855_a_at) / Fold change /veh CASKIN2 (11723855_a_at) / RFU LOC730098 (11760151_x_at) / Fold change /veh LOC730098 (11760151_x_at) / RFU OR4N2 (11742367_at) / Fold change /veh OR4N2 (11742367_at) / RFU PRRT2 (11749266_a_at) / Fold change /veh PRRT2 (11749266_a_at) / RFU SNX32 (11753110_a_at) / Fold change /veh SNX32 (11753110_a_at) / RFU CDHR5 (11726645_a_at) / Fold change /veh CDHR5 (11726645_a_at) / RFU RCAN1 (11760418_a_at) / Fold change /veh RCAN1 (11760418_a_at) / RFU FAM167A (11723789_a_at) / Fold change /veh FAM167A (11723789_a_at) / RFU FAM26E (11764081_at) / Fold change /veh FAM26E (11764081_at) / RFU ISYNA1 (11749810_s_at) / Fold change /veh ISYNA1 (11749810_s_at) / RFU ACY1 (11761880_at) / Fold change /veh ACY1 (11761880_at) / RFU 11764098_at / Fold change /veh 11764098_at / RFU SAMD14 (11745864_x_at) / Fold change /veh SAMD14 (11745864_x_at) / RFU NPB (11741838_a_at) / Fold change /veh NPB (11741838_a_at) / RFU TMPRSS6 (11731388_a_at) / Fold change /veh TMPRSS6 (11731388_a_at) / RFU KRTAP10-2 (11738614_at) / Fold change /veh KRTAP10-2 (11738614_at) / RFU ARHGAP8 /// PRR5-ARHGAP8 (11727945_x_at) / Fold change /veh ARHGAP8 /// PRR5-ARHGAP8 (11727945_x_at) / RFU KRTAP5-7 /// NADSYN1 (11734609_at) / Fold change /veh KRTAP5-7 /// NADSYN1 (11734609_at) / RFU RASL12 (11751679_a_at) / Fold change /veh RASL12 (11751679_a_at) / RFU CDKN2B (11736163_a_at) / Fold change /veh CDKN2B (11736163_a_at) / RFU PRF1 (11729649_at) / Fold change /veh PRF1 (11729649_at) / RFU, ZNF638 /// ZNF638-IT1 / Fold change vs veh, ZNF638 /// ZNF638-IT1 / RFU, PANK3 / Fold change vs veh, PANK3 / RFU, SH3YL1 / Fold change vs veh, SH3YL1 / RFU, ZEB2 / Fold change vs veh, ZEB2 / RFU, NRIP1 / Fold change vs veh, NRIP1 / RFU, PTTG1IP / Fold change vs veh, PTTG1IP / RFU, CAPN2 / Fold change vs veh, CAPN2 / RFU, MED14 / Fold change vs veh, MED14 / RFU, SNORA58 / Fold change vs veh, SNORA58 / RFU, C1orf63 / Fold change vs veh, C1orf63 / RFU, LRRFIP1 / Fold change vs veh, LRRFIP1 / RFU, NDUFAF7 / Fold change vs veh, NDUFAF7 / RFU, SLC12A2 / Fold change vs veh, SLC12A2 / RFU, IBTK / Fold change vs veh, IBTK / RFU, ESF1 / Fold change vs veh, ESF1 / Fold change vs veh, TMEM50B / RFU, TAOK1 / Fold change vs veh, TAOK1 / RFU, ACBD3 / Fold change vs veh, ACBD3 / RFU, TMA16 / Fold change vs veh, TMA16 / RFU, RWDD3 / Fold change vs veh, RWDD3 / RFU, BCAT1 / Fold change vs veh, BCAT1 / RFU, EDEM3 / Fold change vs veh, EDEM3 / RFU, TMEM33 / Fold change vs veh, TMEM33 / RFU, WDR75 / Fold change vs veh, WDR75 / RFU, AHCTF1 / Fold change vs veh, AHCTF1 / RFU, TFRC / Fold change vs veh, TFRC / RFU, ZDHHC17 / Fold change vs veh, ZDHHC17 / RFU, NOM1 / Fold change vs veh, NOM1 / RFU, ARL8B / Fold change vs veh, ARL8B / RFU, ZBTB11 / Fold change vs veh, ZBTB11 / RFU, TAMM41 / Fold change vs veh, TAMM41 / RFU, KIAA1704 /// LOC100996395 / Fold change vs veh, KIAA1704 /// LOC100996395 / RFU, ING1 / Fold change vs veh, ING1 / RFU, TRMT61B / Fold change vs veh, TRMT61B / RFU, FUBP3 / Fold change vs veh, FUBP3 / RFU, TP53 / Fold change vs veh, TP53 / RFU, TNKS2 / Fold change vs veh, TNKS2 / RFU, ZFP14 / Fold change vs veh, ZFP14 / RFU, ACTR2 / Fold change vs veh, ACTR2 / RFU, PPP3R1 / Fold change vs veh, PPP3R1 / RFU, PIK3R1 / Fold change vs veh, PIK3R1 / RFU, HNRNPA1 / Fold change vs veh, HNRNPA1 / RFU, RNF170 / Fold change vs veh, RNF170 / RFU, ZNF28 / Fold change vs veh, ZNF28 / RFU, RNGTT / Fold change vs veh, RNGTT / RFU, OGT / Fold change vs veh, OGT / RFU, BRD1 / Fold change vs veh, BRD1 / RFU, MARS / Fold change vs veh, MARS / RFU, ZNF655 / Fold change vs veh, ZNF655 / RFU, FAHD1 / Fold change vs veh, FAHD1 / RFU, BDP1 / Fold change vs veh, BDP1 / RFU, LRRCC1 / Fold change vs veh, LRRCC1 / RFU, ARID1A / Fold change vs veh, ARID1A / RFU, ZNF146 / Fold change vs veh, ZNF146 / RFU, ZNF330 / Fold change vs veh, ZNF330 / RFU, GPN3 / Fold change vs veh, GPN3 / RFU, C9orf123 / Fold change vs veh, C9orf123 / RFU, N4BP2L2 / Fold change vs veh, N4BP2L2 / RFU, ARFIP1 / Fold change vs veh, ARFIP1 / RFU, FAM179B / Fold change vs veh, FAM179B / RFU, BCL10 / Fold change vs veh, BCL10 / RFU, UHRF1BP1L / Fold change vs veh, UHRF1BP1L / RFU, BET1 / Fold change vs veh, BET1 / RFU, CNOT2 / Fold change vs veh, CNOT2 / RFU, ZNF268 / Fold change vs veh, ZNF268 / Fold change vs veh, ZNF507 / RFU, DGCR2 / Fold change vs veh, DGCR2 / RFU, WDSUB1 / Fold change vs veh, WDSUB1 / Fold change vs veh, HSP90B1 /// MIR3652 / RFU, ADSS / Fold change vs veh, ADSS / RFU, GK / Fold change vs veh, GK / RFU, ZNF148 / Fold change vs veh, ZNF148 / RFU, TAF9 / Fold change vs veh, TAF9 / RFU, SLC1A5 / Fold change vs veh, SLC1A5 / RFU, SLMO2 / Fold change vs veh, SLMO2 / RFU, ABCC4 / Fold change vs veh, ABCC4 / RFU, LOC101060439 /// RAP1B / Fold change vs veh, LOC101060439 /// RAP1B / RFU, RFX7 / Fold change vs veh, RFX7 / RFU, GTPBP10 / Fold change vs veh, GTPBP10 / RFU, CNEP1R1 / Fold change vs veh, CNEP1R1 / RFU, BIVM-ERCC5 /// ERCC5 / Fold change vs veh, BIVM-ERCC5 /// ERCC5 / RFU, ILF3 / Fold change vs veh, ILF3 / RFU 11762660_at / Fold change /veh 11762660_at / RFU VCAN (11757783_s_at) / Fold change /veh VCAN (11757783_s_at) / RFU DDX43 (11728927_at) / Fold change /veh DDX43 (11728927_at) / RFU KRT8 (11758188_x_at) / Fold change /veh KRT8 (11758188_x_at) / RFU NKD1 (11759106_at) / Fold change /veh NKD1 (11759106_at) / RFU SRD5A1 (11742802_a_at) / Fold change /veh SRD5A1 (11742802_a_at) / RFU TPSAB1 /// TPSB2 (11721975_s_at) / Fold change /veh TPSAB1 /// TPSB2 (11721975_s_at) / RFU GSTM3 (11746129_a_at) / Fold change /veh GSTM3 (11746129_a_at) / RFU IL23R (11737362_x_at) / Fold change /veh IL23R (11737362_x_at) / RFU TMEM51 (11727254_a_at) / Fold change /veh TMEM51 (11727254_a_at) / RFU PIWIL2 (11732686_x_at) / Fold change /veh PIWIL2 (11732686_x_at) / RFU ORM1 (11744905_x_at) / Fold change /veh ORM1 (11744905_x_at) / RFU CCDC152 (11743942_at) / Fold change /veh CCDC152 (11743942_at) / RFU ECM1 (11717891_a_at) / Fold change /veh ECM1 (11717891_a_at) / RFU IL23R (11748794_a_at) / Fold change /veh IL23R (11748794_a_at) / RFU TNFAIP8L3 (11732012_x_at) / Fold change /veh TNFAIP8L3 (11732012_x_at) / RFU MBOAT4 (11741988_at) / Fold change /veh MBOAT4 (11741988_at) / RFU 11764193_at / Fold change /veh 11764193_at / RFU TMEM53 (11763286_at) / Fold change /veh TMEM53 (11763286_at) / RFU MAGEB2 (11727129_at) / Fold change /veh MAGEB2 (11727129_at) / RFU TMEM200A (11744735_a_at) / Fold change /veh TMEM200A (11744735_a_at) / RFU CCDC152 (11751479_a_at) / Fold change /veh CCDC152 (11751479_a_at) / RFU FAM211A (11726209_a_at) / Fold change /veh FAM211A (11726209_a_at) / RFU RGS16 (11746705_a_at) / Fold change /veh RGS16 (11746705_a_at) / RFU VCAN (11755009_s_at) / Fold change /veh VCAN (11755009_s_at) / RFU RHOB (11743442_s_at) / Fold change /veh RHOB (11743442_s_at) / RFU RGS16 (11720943_a_at) / Fold change /veh RGS16 (11720943_a_at) / RFU RGS16 (11720944_at) / Fold change /veh RGS16 (11720944_at) / RFU, VPS4B / Fold change vs veh, VPS4B / RFU, CREB1 / Fold change vs veh, CREB1 / RFU, DNAJC13 / Fold change vs veh, DNAJC13 / RFU, GNAQ / Fold change vs veh, GNAQ / RFU, CDK5R1 / Fold change vs veh, CDK5R1 / RFU, ZRANB3 / Fold change vs veh, ZRANB3 / RFU, CUL4A / Fold change vs veh, CUL4A / RFU, CCNY / Fold change vs veh, CCNY / RFU, UFL1 / Fold change vs veh, UFL1 / RFU, COG3 / Fold change vs veh, COG3 / RFU, DIAPH2 / Fold change vs veh, DIAPH2 / RFU, SKA2 / Fold change vs veh, SKA2 / RFU, AFF3 / Fold change vs veh, AFF3 / RFU, LMF1 / Fold change vs veh, LMF1 / RFU, IPO11 / Fold change vs veh, IPO11 / RFU, DFFB / Fold change vs veh, DFFB / RFU, FOXP1 / Fold change vs veh, FOXP1 / RFU, CARD8 / Fold change vs veh, CARD8 / RFU, STRN3 / Fold change vs veh, STRN3 / RFU, ADK / Fold change vs veh, ADK / RFU, RASSF2 / Fold change vs veh, RASSF2 / RFU, WIPF1 / Fold change vs veh, WIPF1 / RFU, LARP1B / Fold change vs veh, LARP1B / RFU, RASA1 / Fold change vs veh, RASA1 / RFU, RB1 / Fold change vs veh, RB1 / RFU, PPFIA1 / Fold change vs veh, PPFIA1 / RFU, MAT2A / Fold change vs veh, MAT2A / RFU, CCT5 / Fold change vs veh, CCT5 / RFU, WDR92 / Fold change vs veh, WDR92 / RFU, CUX1 / Fold change vs veh, CUX1 / RFU, TTC7A / Fold change vs veh, TTC7A / RFU, TMEM135 / Fold change vs veh, TMEM135 / RFU, DEPTOR / Fold change vs veh, DEPTOR / RFU, CPM / Fold change vs veh, CPM / RFU, DNAJB6 / Fold change vs veh, DNAJB6 / RFU, CACNA2D3 / Fold change vs veh, CACNA2D3 / RFU, DTX4 / Fold change vs veh, DTX4 / RFU, TFCP2 / Fold change vs veh, TFCP2 / RFU, GMCL1 /// GMCL1P1 / Fold change vs veh, GMCL1 /// GMCL1P1 / RFU, AEBP2 / Fold change vs veh, AEBP2 / RFU, SNHG1 /// SNORD22 /// SNORD25 /// SNORD26 /// SNORD27 /// SNORD28 /// SNORD29 /// SNORD31 / Fold change vs veh, SNHG1 /// SNORD22 /// SNORD25 /// SNORD26 /// SNORD27 /// SNORD28 /// SNORD29 /// SNORD31 / Fold change (Aza/veh), C12orf56 (ProbeSet 11735607_a_at) / Fold change (ACY-1035/veh), C12orf56 (ProbeSet 11735607_a_at) / Fold change (Aza/veh), FGFR1OP (ProbeSet 11751329_s_at) / Fold change (ACY-1035/veh), FGFR1OP (ProbeSet 11751329_s_at) / Fold change (Aza/veh), VPS36 (ProbeSet 11739960_a_at) / Fold change (ACY-1035/veh), VPS36 (ProbeSet 11739960_a_at) / RFU SYPL1 (11715823_x_at) / Fold change /veh SYPL1 (11715823_x_at) / RFU IGFBP7 (11715501_s_at) / Fold change /veh IGFBP7 (11715501_s_at) / RFU REEP3 (11722064_at) / Fold change /veh REEP3 (11722064_at) / RFU IGLL1 (11728026_x_at) / Fold change /veh IGLL1 (11728026_x_at): dose or concentration left out as unconfirmed. To be noted: ProbeSet 11724763_s_at; LIST D.

Each structure is given as a SMILES string.

On to `Nc1ncn([C@@H]2O[C@H](CO)[C@@H](O)[C@H]2O)c(=O)n1` [azacitidine], for which the “RFU, DEPTOR” value was determined as 80.20 RFU.

(Values after PMC5218480 (PLoS ONE, 2017).)
